Data reported in paper PMC6422671 (British Journal of Clinical Pharmacology, 2019).

Assay: Clinical laboratory findings: chemistry; data mean (standard deviation)
Format: in vivo, healthy men
From the text: Data are mean (standard deviation).

Q: What does the source list for `C[C@@H](N)c1cc(Cl)ccc1Cn1c(=S)[nH]c(=O)c2[nH]ccc21` [AZD4831]?
A: ALP (5 mg fasted, 24 h): 0.997 (0.210) µkat L^–1; ALT (5 mg fasted, 24 h): 0.397 (0.159) µkat L^–1; AST (5 mg fasted, 24 h): 0.370 (0.103) µkat L^–1; Albumin (5 mg fasted, 24 h): 42.6 (2.4) g L^–1; Bilirubin (5 mg fasted, 24 h): 12.3 (2.6) µmol L^–1; CRP (5 mg fasted, 24 h): 0.38 (0.22) mg L^–1; Calcium (5 mg fasted, 24 h): 2.36 (0.04) mmol L^–1; Creatinine (5 mg fasted, 24 h): 82.2 (10.3) µmol L^–1; GGT (5 mg fasted, 24 h): 0.288 (0.103) µkat L^–1; Glucose (5 mg fasted, 24 h): 4.69 (0.32) mmol L^–1; Phosphate (5 mg fasted, 24 h): 1.12 (0.09) mmol L^–1; Potassium (5 mg fasted, 24 h): 4.14 (0.23) mmol L^–1; Sodium (5 mg fasted, 24 h): 136.3 (0.8) mmol L^–1; Urea (5 mg fasted, 24 h): 4.66 (0.90) mmol L^–1; ALP (5 mg fasted, 48 h): 0.989 (0.186) µkat L^–1; ALT (5 mg fasted, 48 h): 0.405 (0.142) µkat L^–1; AST (5 mg fasted, 48 h): 0.357 (0.077) µkat L^–1; Albumin (5 mg fasted, 48 h): 43.3 (2.1) g L^–1; Bilirubin (5 mg fasted, 48 h): 10.6 (2.3) µmol L^–1; CRP (5 mg fasted, 48 h): 0.48 (0.40) mg L^–1; Calcium (5 mg fasted, 48 h): 2.38 (0.04) mmol L^–1; Creatinine (5 mg fasted, 48 h): 80.9 (4.7) µmol L^–1; GGT (5 mg fasted, 48 h): 0.287 (0.105) µkat L^–1; Glucose (5 mg fasted, 48 h): 4.76 (0.32) mmol L^–1; Phosphate (5 mg fasted, 48 h): 0.99 (0.12) mmol L^–1; Potassium (5 mg fasted, 48 h): 4.23 (0.16) mmol L^–1; Sodium (5 mg fasted, 48 h): 137.5 (0.6) mmol L^–1; Urea (5 mg fasted, 48 h): 4.52 (1.08) mmol L^–1; ALP (5 mg fasted, follow up): 1.094 (0.227) µkat L^–1; ALT (5 mg fasted, follow up): 0.407 (0.063) µkat L^–1; AST (5 mg fasted, follow up): 0.413 (0.097) µkat L^–1; Albumin (5 mg fasted, follow up): 45.3 (1.3) g L^–1; Bilirubin (5 mg fasted, follow up): 12.5 (3.3) µmol L^–1; CRP (5 mg fasted, follow up): 1.27 (1.43) mg L^–1; Calcium (5 mg fasted, follow up): 2.42 (0.04) mmol L^–1; Creatinine (5 mg fasted, follow up): 84.8 (9.1) µmol L^–1; GFR (5 mg fasted, follow up): 98 (15) mL min^–1 1.73m^–2; GGT (5 mg fasted, follow up): 0.307 (0.093) µkat L^–1; Glucose (5 mg fasted, follow up): 4.78 (0.68) mmol L^–1; Phosphate (5 mg fasted, follow up): 1.11 (0.10) mmol L^–1; Potassium (5 mg fasted, follow up): 4.32 (0.22) mmol L^–1; Sodium (5 mg fasted, follow up): 138.4 (1.5) mmol L^–1; Urea (5 mg fasted, follow up): 4.57 (1.29) mmol L^–1; ALP (15 mg fasted, 24 h): 1.165 (0.364) µkat L^–1; ALT (15 mg fasted, 24 h): 0.475 (0.222) µkat L^–1; AST (15 mg fasted, 24 h): 0.394 (0.098) µkat L^–1; Albumin (15 mg fasted, 24 h): 43.2 (2.7) g L^–1; Bilirubin (15 mg fasted, 24 h): 14.5 (6.3) µmol L^–1; CRP (15 mg fasted, 24 h): 0.53 (0.28) mg L^–1; Calcium (15 mg fasted, 24 h): 2.35 (0.11) mmol L^–1; Creatinine (15 mg fasted, 24 h): 76.2 (10.7) µmol L^–1; GGT (15 mg fasted, 24 h): 0.504 (0.232) µkat L^–1; Glucose (15 mg fasted, 24 h): 4.57 (0.21) mmol L^–1; Phosphate (15 mg fasted, 24 h): 1.14 (0.14) mmol L^–1; Potassium (15 mg fasted, 24 h): 4.12 (0.24) mmol L^–1; Sodium (15 mg fasted, 24 h): 137.5 (1.0) mmol L^–1; Urea (15 mg fasted, 24 h): 4.35 (0.61) mmol L^–1; ALP (15 mg fasted, 48 h): 1.159 (0.329) µkat L^–1; ALT (15 mg fasted, 48 h): 0.515 (0.255) µkat L^–1; AST (15 mg fasted, 48 h): 0.406 (0.116) µkat L^–1; Albumin (15 mg fasted, 48 h): 44.2 (2.6) g L^–1; Bilirubin (15 mg fasted, 48 h): 13.6 (6.0) µmol L^–1; CRP (15 mg fasted, 48 h): 0.62 (0.40) mg L^–1; Calcium (15 mg fasted, 48 h): 2.37 (0.10) mmol L^–1; Creatinine (15 mg fasted, 48 h): 75.9 (12.3) µmol L^–1; GGT (15 mg fasted, 48 h): 0.501 (0.243) µkat L^–1; Glucose (15 mg fasted, 48 h): 4.72 (0.23) mmol L^–1; Phosphate (15 mg fasted, 48 h): 1.11 (0.16) mmol L^–1; Potassium (15 mg fasted, 48 h): 4.23 (0.25) mmol L^–1; Sodium (15 mg fasted, 48 h): 138.8 (0.8) mmol L^–1; Urea (15 mg fasted, 48 h): 4.30 (0.74) mmol L^–1; ALP (15 mg fasted, follow up): 1.240 (0.380) µkat L^–1; ALT (15 mg fasted, follow up): 0.504 (0.193) µkat L^–1; AST (15 mg fasted, follow up): 0.420 (0.085) µkat L^–1; Albumin (15 mg fasted, follow up): 45.2 (3.1) g L^–1; Bilirubin (15 mg fasted, follow up): 11.3 (5.5) µmol L^–1; CRP (15 mg fasted, follow up): 1.37 (0.47) mg L^–1; Calcium (15 mg fasted, follow up): 2.38 (0.14) mmol L^–1; Creatinine (15 mg fasted, follow up): 78.4 (9.8) µmol L^–1; GFR (15 mg fasted, follow up): 114 (12) mL min^–1 1.73m^–2; GGT (15 mg fasted, follow up): 0.534 (0.262) µkat L^–1; Glucose (15 mg fasted, follow up): 4.62 (0.45) mmol L^–1; Phosphate (15 mg fasted, follow up): 1.15 (0.08) mmol L^–1; Potassium (15 mg fasted, follow up): 4.39 (0.30) mmol L^–1; Sodium (15 mg fasted, follow up): 136.9 (1.1) mmol L^–1; Urea (15 mg fasted, follow up): 4.79 (1.46) mmol L^–1; ALP (45 mg fasted, 24 h): 1.061 (0.228) µkat L^–1; ALT (45 mg fasted, 24 h): 0.329 (0.098) µkat L^–1; AST (45 mg fasted, 24 h): 0.293 (0.069) µkat L^–1; Albumin (45 mg fasted, 24 h): 41.6 (2.4) g L^–1; Bilirubin (45 mg fasted, 24 h): 12.0 (3.5) µmol L^–1; CRP (45 mg fasted, 24 h): 0.77 (0.71) mg L^–1; Calcium (45 mg fasted, 24 h): 2.34 (0.05) mmol L^–1; Creatinine (45 mg fasted, 24 h): 75.8 (7.2) µmol L^–1; GGT (45 mg fasted, 24 h): 0.315 (0.072) µkat L^–1; Glucose (45 mg fasted, 24 h): 4.90 (0.29) mmol L^–1; Phosphate (45 mg fasted, 24 h): 1.17 (0.08) mmol L^–1; Potassium (45 mg fasted, 24 h): 4.29 (0.10) mmol L^–1; Sodium (45 mg fasted, 24 h): 139.2 (1.7) mmol L^–1; Urea (45 mg fasted, 24 h): 4.25 (0.47) mmol L^–1; ALP (45 mg fasted, 48 h): 1.097 (0.257) µkat L^–1; ALT (45 mg fasted, 48 h): 0.319 (0.095) µkat L^–1; AST (45 mg fasted, 48 h): 0.288 (0.074) µkat L^–1; Albumin (45 mg fasted, 48 h): 42.5 (2.7) g L^–1; Bilirubin (45 mg fasted, 48 h): 12.3 (3.3) µmol L^–1; CRP (45 mg fasted, 48 h): 0.58 (0.49) mg L^–1; Calcium (45 mg fasted, 48 h): 2.34 (0.05) mmol L^–1; Creatinine (45 mg fasted, 48 h): 73.2 (6.4) µmol L^–1; GGT (45 mg fasted, 48 h): 0.312 (0.064) µkat L^–1; Glucose (45 mg fasted, 48 h): 5.06 (0.19) mmol L^–1; Phosphate (45 mg fasted, 48 h): 1.12 (0.09) mmol L^–1; Potassium (45 mg fasted, 48 h): 4.18 (0.20) mmol L^–1; Sodium (45 mg fasted, 48 h): 140.9 (2.2) mmol L^–1; Urea (45 mg fasted, 48 h): 4.24 (0.55) mmol L^–1; ALP (45 mg fasted, follow up): 1.165 (0.282) µkat L^–1; ALT (45 mg fasted, follow up): 0.324 (0.059) µkat L^–1; AST (45 mg fasted, follow up): 0.356 (0.054) µkat L^–1; Albumin (45 mg fasted, follow up): 44.1 (2.6) g L^–1; Bilirubin (45 mg fasted, follow up): 12.9 (5.6) µmol L^–1; CRP (45 mg fasted, follow up): 2.89 (5.30) mg L^–1; Calcium (45 mg fasted, follow up): 2.35 (0.04) mmol L^–1; Creatinine (45 mg fasted, follow up): 74.6 (9.2) µmol L^–1; GFR (45 mg fasted, follow up): 112 (12) mL min^–1 1.73m^–2; GGT (45 mg fasted, follow up): 0.300 (0.052) µkat L^–1; Glucose (45 mg fasted, follow up): 4.84 (0.54) mmol L^–1; Phosphate (45 mg fasted, follow up): 1.12 (0.20) mmol L^–1; Potassium (45 mg fasted, follow up): 4.18 (0.18) mmol L^–1; Sodium (45 mg fasted, follow up): 139.5 (1.3) mmol L^–1; Urea (45 mg fasted, follow up): 3.90 (0.63) mmol L^–1
